In PMC8206213, “An L-2-hydroxyglutarate biosensor based on specific transcriptional regulator LhgR” (Nature Communications, 2021):
Where “and” joins values, the source holds several entries; their conditions need not be identical. Equal entries are not always repeated.

How the values were obtained:
[1] = test system: LHGFR0N7C expressed in E. coli BL21(DE3); experiment: Specificity of LHGFR0N7C expressed in E. coli BL21(DE3), 1 mM compounds; type: cell-based; conditions: Supplementary Fig. 13c
Experimental: (§1) To characterize the sensitivity and specificity of LHGFR expressed in E. coli BL21(DE3), 90 μL cell suspensions following 8 h carbon starvation were mixed with 10 μL increasing concentrations of L-2-HG or other compounds, and then added into a black 96-well plate (total 100 μL/per well), the fluorescence intensities were determined using an EnSight microplate reader (PerkinElmer, USA) and the following instrument settings: excitation at 430 nm, emission at 485 nm (mTFP) and 528 nm (Venus), time intervals of 5 min, the temperature at 37 °C, and shake at 180 rpm.

[2] = test system: LHGFR3N7C expressed in E. coli BL21(DE3); experiment: Control biosensor LHGFR3N7C expressed in E. coli, response to added compounds; type: cell-based; conditions: Supplementary Fig. 14a
Experimental: as §1

[3] = test system: LHGFR0N3C expressed in HEK293FT cells; experiment: Specificity of LHGFR0N3C expressed in permeabilized HEK293FT cells, 1 mM compounds; type: cell-based, human (HEK293FT cells)
Experimental: (§2) To characterize the sensitivity and specificity of LHGFR expressed in HEK293FT cells, cells were trypsinized 48 h following transfection and suspended in 1× Hank’s balanced salt solution supplemented with 20 mM HEPES. […] Digitonin at a concentration of 10 μM was used to induce cell permeabilization and deplete intracellular L-2-HG for in vivo response curves construction. Then, the fluorescence intensities were determined by a SpectraMax i3 fluorescence plate reader (Molecular Devices, USA) with excitation at 430 nm and emission at 485 nm (mTFP) and 528 nm (Venus). Basal L-2-HG concentration in HEK293FT cells under physiological conditions was determined by substituting the emission ratios of non-permeabilized HEK293FT cells into the calibrated in vivo response curves.

[4] = test system: LHGFR0N7C expressed in HEK293FT cells; experiment: Specificity of LHGFR0N7C expressed in permeabilized HEK293FT cells, 1 mM compounds; type: cell-based, human (HEK293FT cells); conditions: Supplementary Fig. 17d; Control about 1
Experimental: as §2

O=C(O)CC[C@H](O)C(=O)O [L-2-HG, L-2-Hydroxyglutarate]
normalized emission ratio of biosensor expressed in E. coli ([1]; time 0 min): 1.016 and 1.006 and 1.026 | normalized emission ratio of biosensor expressed in E. coli ([1]; time 5 min): 1.0991 and 1.081 and 1.1 | normalized emission ratio of biosensor expressed in E. coli ([1]; time 10 min): 1.206 and 1.179 and 1.184 | normalized emission ratio of biosensor expressed in E. coli ([1]; time 15 min): 1.293 and 1.273 and 1.276 | normalized emission ratio of biosensor expressed in E. coli ([1]; time 20 min): 1.341 and 1.328 and 1.319 | normalized emission ratio of biosensor expressed in E. coli ([1]; time 25 min): 1.35 and 1.357 and 1.333 | normalized emission ratio of biosensor expressed in E. coli ([1]; time 30 min): 1.374 and 1.365 and 1.366 | normalized emission ratio of biosensor expressed in E. coli ([1]; time 35 min): 1.386 and 1.367 and 1.374 | normalized emission ratio of biosensor expressed in E. coli ([1]; time 40 min): 1.391 and 1.384 and 1.386 | normalized emission ratio of biosensor expressed in E. coli ([1]; time 45 min): 1.414 and 1.39 and 1.389 | normalized emission ratio of biosensor expressed in E. coli ([1]; time 50 min): 1.407 and 1.378 and 1.396 | normalized emission ratio of biosensor expressed in E. coli ([1]; time 55 min): 1.415 and 1.39 and 1.4085 | normalized emission ratio of biosensor expressed in E. coli ([1]; time 60 min): 1.43 and 1.394 and 1.408 | normalized emission ratio of biosensor expressed in E. coli ([1]; time 65 min): 1.417 and 1.4114 and 1.411 | normalized emission ratio of biosensor expressed in E. coli ([1]; time 70 min): 1.41 and 1.402 and 1.422 | normalized emission ratio of biosensor expressed in E. coli ([1]; time 75 min): 1.393 and 1.405 and 1.423 | normalized emission ratio of biosensor expressed in E. coli ([1]; time 80 min): 1.412 and 1.416 and 1.423 | normalized emission ratio of biosensor expressed in E. coli ([1]; time 85 min): 1.389 and 1.408 and 1.4341 | normalized emission ratio of biosensor expressed in E. coli ([1]; time 90 min): 1.404 and 1.406 and 1.429 | normalized emission ratio of control biosensor expressed in E. coli ([2]; time 0 min): 1.025 and 0.9958 and 0.9991 and 1.005 | normalized emission ratio of control biosensor expressed in E. coli ([2]; time 5 min): 1.029 and 0.9977 and 0.9908 and 1.001 | normalized emission ratio of control biosensor expressed in E. coli ([2]; time 10 min): 1.016 and 0.9993 and 0.9928 and 0.996 | normalized emission ratio of control biosensor expressed in E. coli ([2]; time 15 min): 1.012 and 0.9858 and 0.9895 and 0.9948 | normalized emission ratio of control biosensor expressed in E. coli ([2]; time 20 min): 1.006 and 0.9892 and 0.9883 and 1.004 | normalized emission ratio of control biosensor expressed in E. coli ([2]; time 25 min): 1.005 and 0.9958 and 0.9871 and 1.006 | normalized emission ratio of control biosensor expressed in E. coli ([2]; time 30 min): 1.009 and 0.9836 and 0.9873 and 0.9978 | normalized emission ratio of control biosensor expressed in E. coli ([2]; time 35 min): 1.002 (2×) and 0.988 and 0.9805 | normalized emission ratio of control biosensor expressed in E. coli ([2]; time 40 min): 1.005 and 0.9884 and 0.9838 and 1.008 | normalized emission ratio of control biosensor expressed in E. coli ([2]; time 45 min): 1.011 and 0.9924 and 0.993 and 1.004 | normalized emission ratio of control biosensor expressed in E. coli ([2]; time 50 min): 0.997 and 0.991 and 0.9858 and 1.009 | normalized emission ratio of control biosensor expressed in E. coli ([2]; time 55 min): 1.0056 and 0.9921 and 0.9909 and 1.012 | normalized emission ratio of control biosensor expressed in E. coli ([2]; time 60 min): 1.003 and 0.9967 and 0.9937 and 1.007 | normalized emission ratio of control biosensor expressed in E. coli ([2]; time 65 min): 0.9962 (2×) and 0.991 and 1.017 | normalized emission ratio of control biosensor expressed in E. coli ([2]; time 70 min): 1.013 and 1.001 and 0.9947 and 1.016 | normalized emission ratio of control biosensor expressed in E. coli ([2]; time 75 min): 1.004 and 0.9948 and 0.9987 and 1.025 | normalized emission ratio of control biosensor expressed in E. coli ([2]; time 80 min): 1.011 and 1.0052 and 1.01 and 1.025 | normalized emission ratio of control biosensor expressed in E. coli ([2]; time 85 min): 1.015 and 0.9941 and 1.005 and 1.023 | normalized emission ratio of control biosensor expressed in E. coli ([2]; time 90 min): 1.028 and 1.011 and 1.01 and 1.022 | Increase of the emission ratio of LHGFR0N3C ([3]; 10 μM digitonin-permeabilized HEK293FT cells): Only exogenous L-2-HG could significantly increase the emission ratio | Normalized emission ratio ([3]; 1 mM compound, cells permeabilized with 10 μM digitonin, normalized to control): 1.418 and 1.367 and 1.404 | Normalized emission ratio [4]: 1.4262 and 1.43 and 1.452
